Values joined by “and” are separate entries in the source; they are usually repeats but may differ in a detail not shown here. Equal entries are not always repeated. Where two headings read alike, the source gives them in different places.
What was measured:
[1] = target: recombinant H1N1 neuraminidase (Influenza A virus (strain A/Puerto Rico/8/1934 H1N1), UniProt P03468); assay: biochemical; type: biochemical
[2] = target: neuraminidase of NP40-inactivated influenza A/Brisbane/59/2007(H1N1) (Influenza A virus, UniProt D5F1R0); assay: In vitro neuraminidase assay vs. NP40-inactivated influenza virus; type: biochemical
neuraminidase = conditions: background statement; cited from earlier work
[3] = NP40-inactivated influenza A/Brisbane/59/2007(H1N1), read-out: IC50
[4] = NP40-inactivated virus, Lineweaver-Burk analysis

Sequence of recombinant H1N1 neuraminidase (P03468 36-454 limits assumed): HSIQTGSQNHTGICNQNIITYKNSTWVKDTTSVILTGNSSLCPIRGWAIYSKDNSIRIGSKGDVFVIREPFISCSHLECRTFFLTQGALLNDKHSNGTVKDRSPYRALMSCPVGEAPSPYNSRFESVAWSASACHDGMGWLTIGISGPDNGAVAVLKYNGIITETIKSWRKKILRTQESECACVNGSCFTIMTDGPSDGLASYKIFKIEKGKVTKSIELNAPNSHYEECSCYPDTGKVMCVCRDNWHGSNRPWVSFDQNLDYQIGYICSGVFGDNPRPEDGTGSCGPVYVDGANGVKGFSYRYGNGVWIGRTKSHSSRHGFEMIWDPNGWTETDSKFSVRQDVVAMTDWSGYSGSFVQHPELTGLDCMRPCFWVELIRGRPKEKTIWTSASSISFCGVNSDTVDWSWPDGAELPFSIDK
Sequence of neuraminidase of NP40-inactivated influenza A/Brisbane/59/2007(H1N1) (D5F1R0 1-470): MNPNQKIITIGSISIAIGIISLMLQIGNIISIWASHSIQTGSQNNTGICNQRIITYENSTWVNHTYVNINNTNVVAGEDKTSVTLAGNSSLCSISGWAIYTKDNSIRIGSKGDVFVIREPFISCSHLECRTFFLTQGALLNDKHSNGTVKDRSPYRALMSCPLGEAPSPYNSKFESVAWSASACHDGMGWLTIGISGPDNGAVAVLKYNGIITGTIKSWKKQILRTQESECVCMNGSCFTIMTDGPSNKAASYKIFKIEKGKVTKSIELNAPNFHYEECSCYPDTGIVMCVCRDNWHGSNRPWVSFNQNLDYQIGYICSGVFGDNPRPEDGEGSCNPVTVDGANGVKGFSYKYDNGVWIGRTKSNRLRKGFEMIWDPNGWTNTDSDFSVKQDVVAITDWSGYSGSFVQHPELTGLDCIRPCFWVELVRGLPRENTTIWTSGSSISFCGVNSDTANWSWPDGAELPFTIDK

SMILES: C[C@@H]1C[C@](O)(C(=O)O)[C@H]2CCS(=O)(=O)[C@@H]12 [Compound 20]
- IC50 [1]: 4 mM
- Inhibition Mode [1]: mixed
- inhibition of commercially available recombinant H1N1 neuraminidase [1]: dose-dependent inhibition

SMILES: C[C@@H]1C[C@](O)(C(=O)O)[C@H]2C[C@H](Cc3ccccc3)S(=O)(=O)[C@@H]12 [Compound 21]
- IC50 [1]: > 10 mM

SMILES: N=C(N)N[C@@H]1C[C@](O)(C(=O)O)[C@H]2CCS(=O)(=O)[C@@H]12 [Compound 27]
- IC50 [2, 3]: 3.7 mM and 3.8 mM
- Inhibition Mode [2, 4]: competitive
- Ki ([2]; NP40-inactivated virus, estimated from Km versus inhibitor concentration, read-out: Ki): 1 mM

SMILES: CC(=O)N[C@H]1CS(=O)(=O)[C@H]2[C@@H]1[C@H](N)C[C@@H]2C(=O)O [Compound 31]
- IC50 [2, 3]: 0.092 mM
- Inhibition Mode [2, 4]: competitive

SMILES: CC(=O)N[C@H]1CS(=O)(=O)[C@H]2[C@@H]1[C@H](NC(=N)N)C[C@@H]2C(=O)O [Compound 32]
- Inhibition Mode [2]: competitive
- Ki [2]: 0.005 mM
- IC50 ([2]; IC50): 0.03 mM

SMILES: CCOC(=O)C1=C[C@@H](OC(CC)CC)[C@H](NC(C)=O)[C@@H](N)C1 [oseltamivir]
- effective concentration as neuraminidase inhibitor (neuraminidase): around 1 nM

SMILES: CCC(CC)[C@H](NC(C)=O)[C@@H]1[C@H](O)[C@@H](C(=O)O)C[C@H]1N=C(N)N [peramivir]
- potency relative to oseltamivir (neuraminidase): roughly ten-fold

Reference: patent publication US8883846B2, “Synthesis of bicyclic compounds and method for their use as therapeutic agents” (priority 2010, dated 2014)
